In patent US11279734B2, “Solution-phase affinity selection of inhibitors from combinatorial peptide libraries” (Massachusetts Institute of Technology, priority 2017, dated 2022):
“Also recorded” adds a separate entry of the source. Where two headings read alike, the source gives them in different places. Where no end group is shown, it is not given here. [ ]: non-standard residue; d: D form. Cha = N[C@@H](CC1CCCCC1)C(=O)O

Legend:
SUMO-25-109 MDM2 [1] = target: T1, SUMO-25-109 MDM2 (Homo sapiens, UniProt Q00987); assay: BLI in solution competition assay; assay type: binding; details: for binding to MDM2 (in words): acetylated peptides or mini-proteins, BLI
Description: Calibration Curve: Streptavidin (SA) sensors were soaked in competition buffer (PBS supplemented with 0.05% Tween-20, and L-arginine pH 7.5) for 10 minutes at 30° C. […] The thus obtained biotinylated 63a (0.5 μM in competition buffer) was loaded on the SA sensor for 10 minutes at 30° C. and 1000 rpm. […] A calibration curve corresponding to binding response at equilibrium (in nm)=f(free [MDM2] in nM) was generated using GraphPad Prism 6 software using non-linear regression analysis (see FIG. 5).
Meanwhile, SA sensors were soaked in competition buffer for 10 minutes at 30° C. […] Based on the binding (nm) values, the concentration of “free” MDM2 was interpolated for each sample using the calibration curve. […] The following equation was used to generate fitted curves.

SUMO-25-109 MDM2 [2] = target: T1, SUMO-25-109 MDM2; assay type: binding; details: biotinylated peptides, BLI
MCF-7 cells = assay: Cell viability assay (MTS); assay type: cell-based; details: MCF-7 cells (MDM2 and MDMX overexpressing), 72 hours
Description: (§1) SJSA-1, K-562 and MCF-7 cells were plated in 96-well plates in RPMI-1640 containing 10% FBS and 1% Pen-Strep and the next day were treated with the indicated concentrations of peptide or vehicle control. Peptide stocks were diluted into RPMI-1640 containing 10% FBS and 1% Pen-Strep to achieve 2× working individual stock solutions that were thoroughly mixed then diluted into the treatment wells. Cell viability was assayed after 72 hours by addition of CellTiter 96® AQueous One Solution Cell Proliferation reagent (MTS). All assays were performed in triplicate, and data was normalized to vehicle treated control and analyzed using Prism software (GraphPad Software).

SJSA-1 cells [3] = assay: Cell viability assay (MTS); assay type: cell-based; details: 72 hours
Description: as §1

K-562 cells = assay: Cell viability assay (MTS); assay type: cell-based; details: K-562 p53-null cells, 72 hours
Description: as §1

SJSA-1 cells [4] = assay: Western blot analysis of p53 activation (MDM2, p21); assay type: cell-based; details: 10 μM, 12 hours
Description: SJSA-1 and K-562 cells were seeded in 6 well plates at a cell density of 350*10^3 cells/well in RPMI-1640 media supplemented with 10% serum and 1% Pen-Strep and incubated overnight at 37° C. and 5% CO2. The next day cells were treated with peptides and controls at 10 μM for 12 hours. Then cells were harvested and their pellets washed (2×) with PBS and lysed in 100 μL of RIPA buffer supplemented with Roche protease inhibitor cocktail on ice for 30 minutes. The lysates were clarified by brief centrifugation at 4° C. and total protein concentration was determined using the Bio-Rad DC protein assay. Aliquots of the cell lysates were run on 12% Tris-Glycine polyacrylamide gels (Invitrogen). After transfer using Trans-Blot Turbo Transfer system (Biorad), the membrane was blocked at room temperature for 2 hours with LI-COR blocking buffer. The membrane was cut in three and each part was incubated respectively with anti-MDM2 (mouse, SMP14: sc-965, Santa Cruz Biotechnology), anti-p21 (mouse, F-5: sc-6246, Santa Cruz Biotechnology) and anti-GAPDH (rabbit, GAPDH (D16H11) XP®, Cell Signaling Technology) antibodies in TBST overnight at 4° C. The membranes were washed and incubated with the appropriate secondary antibodies in TBST for 1 h at room temperature, washed again, then imaged with the LI-COR Odyssey infrared imaging system (see FIGS. 103-105).

MDM2 [5] = target: T2, MDM2 (Homo sapiens, UniProt Q00987); assay: HPSEC affinity selection under increasing stringency (EIC peak area); assay type: binding; details: usual stringency vs 100 μM of 6 and MDM2 lowered to […]
Description: SEC conditions: unless stated otherwise, high performance size exclusion column BIO-SEC-3, 7.8×150 mm, 3 μm particle size and 100 Å pore size was used. 100 μL of binding mixture containing peptides or peptide libraries and protein target was isocratically eluted in buffered mobile phase (25 mM Tris, 50 mM NaCl, pH 7.5, with or without L-arginine supplementation) at 1 mL/min flow rate for 15 minutes (typical backpressure ˜80-90 bars for a brand new column). Generally, mobile phase is also used as the binding buffer for affinity selection experiments, and systematically before each experiment a blank injection is performed consisting in a protein only injection. During affinity selection experiments the breakthrough fraction (protein fraction) was monitored by UV and collected. The latter contained the protein-binder complexes which were dissociated using 0.2% formic acid before characterization using LC-MS or LC-MS/MS analysis.

MDM2 [6] = target: T2, MDM2; assay: Kd MDM2 (nM)
Source text: Table printed on a drawing sheet, Figure 2B
Head of the field: Kd MDM2 (nM)
The patent's description of the figure: FIGS. 2A-2F: Rapid combinatorial mapping of pDI (6) key binding residues and affinity selection of potent non-canonical inhibitors of ^25-109MDM2 and C-CA proteins. FIG. 2A) Combinatorial mapping of pDI (6) binding hotspots, library design. Represented are 6's randomized residues using L-configured (circles) natural amino acids. FIG. 2B) Affinity selected sequences from Library 1 and 2 at different stringencies (sequences 1 to 9) were validated after resynthesis and biotinylation or acetylation (peptides 1a to 6a and 7b to 9b) using bio-layer interferometry (BLI). In bold italic are represented randomized residues, and those that were varied compared to sequence 6. FIG. 2C) Expanding linear inhibitor hotspots to non-canonical amino acids. Library 3 was designed around 6 while Library 4 was designed around CAI (37) inhibitor. Depicted are randomized residues using non-canonical amino acids (abbreviations for each monomer are indicated in bold). FIG. 2D) Affinity selection from Library 3 at higher stringency using 6 as a soluble competitive inhibitor. […]
First copying reader's note: Randomized residues are printed in italic (bold or grey); this styling is not kept in the grid.
Where the first naming reader finds the target: head: Kd MDM2 (nM)

**Q.** With “LT(F2f)EHY(Hexa)AQ(Cba)TSK [peptide 10b]” as the substance, how does the “binding to MDM2 (in words)” value (SUMO-25-109 MDM2 [1]; in solution competition) read?
**A.** low nanomolar affinity to MDM2

**Q.** With “LT(F2f)EHY(Hexa)AQ(Cba)TSK [peptide 10a]” as the substance, how does the “binding to MDM2 (in words)” value (SUMO-25-109 MDM2 [2]) read?
**A.** high affinity binder

**Q.** “LT(F2f)(R8)EY(Napa)AE(Cba)KSAA [peptide 27b-M]” was tested. Which “binding to MDM2 (in words)” value (SUMO-25-109 MDM2 [1]; in solution competition) did it give?
**A.** low nanomolar affinity

**Q.** What about the cell viability (MCF-7 cells) of the same substance?
**A.** lowered viability for MCF-7 cells

**Q.** And the “cell killing / viability” value (SJSA-1 cells [3])?
**A.** cell-killing properties

**Q.** And the cell viability (K-562 cells)?
**A.** did not significantly lower K-562 viability

**Q.** And the “upregulation of MDM2 and p21” value (SJSA-1 cells [4])?
**A.** upregulated p21 and MDM2

**Q.** How did the “EIC peak area variation from condition (A) to (D)” value (MDM2 [5]) turn out when LT(F2f)EHYWAQ(Cba)TSK [peptide 11] was run?
**A.** 30 fold

**Q.** With LTFEHYWAQFTSK [peptide 5a] as the substance, how does the “binding to MDM2 (in words)” value (SUMO-25-109 MDM2 [2]) read?
**A.** nanomolar binder

**Q.** KAWYAN[Cha]EKLLR [peptide 45] was tested. Which Kd (SUMO-25-109 MDM2 [1]; in solution competition, acetylated peptide or mini-protein, fitted titration curve) did it give?
**A.** 6.1 nM

**Q.** For “Bio-(PEG)4- Leu Thr Phe Glu His Tyr Trp Ala Gln Leu Thr Ser Lys -NH2 [(SEQ ID NO: 8) | 6a]”, which Kd (MDMX) is on record?
**A.** 83 nM

**Q.** What does the source list for “LT(F2f)(Dap)EYWAQ(Cba)(Dap)SAA [peptide 11b-S1]”?
**A.** binding to MDM2 (in words) (SUMO-25-109 MDM2 [1]; in solution competition): low nanomolar affinity; cell viability (MCF-7 cells): lowered viability for MCF-7 cells; cell killing / viability (SJSA-1 cells [3]): cell-killing properties; also recorded: killed SJSA-1 cells; cell viability (K-562 cells): did not significantly lower K-562 viability; upregulation of MDM2 and p21 (SJSA-1 cells [4]): upregulated MDM2 and P21 markers; also recorded: upregulated p53 gene products p21 and MDM2

**Q.** For “LT(F2f)KEY(Hexa)AQ(Cba)(K)SAA [peptide 10b-S4]”, which “binding to MDM2 (in words)” value (SUMO-25-109 MDM2 [1]; in solution competition) is on record?
**A.** weakened or abrogated binding

**Q.** LT(F2f)KEYWAE(Cba)KSAA [peptide 11b-S4] was tested. Which “binding to MDM2 (in words)” value (SUMO-25-109 MDM2 [1]; in solution competition) did it give?
**A.** weakened or abrogated binding

**Q.** KAWYAN(CF3f)EKLLR [peptide 53] was tested. Which “affinity for MDM2 lower than 54b” value (SUMO-25-109 MDM2 [1]; label free approach, relative to 54b) did it give?
**A.** about 20 fold

**Q.** With LT(F2f)EHY(Hexa)AQ(Cba)TSK [peptide 10] as the substance, how does the “EIC peak area variation from condition (A) to (D)” value (MDM2 [5]) read?
**A.** 4.5 fold

**Q.** “LT(F2f)(R8)EFWAQ(Cba)(S5)SAA [peptide 11b-M]” was tested. Which “binding to MDM2 (in words)” value (SUMO-25-109 MDM2 [1]; in solution competition) did it give?
**A.** low nanomolar affinity

**Q.** And the “cell killing / viability” value (SJSA-1 cells [3])?
**A.** cell-killing properties

**Q.** And the “upregulation of MDM2 and p21” value (SJSA-1 cells [4])?
**A.** upregulated p21 and MDM2

**Q.** LTFCys(ar)HYWAQFCys(ar)SK [peptide 61a] was tested. Which “binding to MDM2 (in words)” value (SUMO-25-109 MDM2 [2]) did it give?
**A.** substantially weaker binding compared to 60a

**Q.** Which Kd (MDMX) does the source give for “Bio-(PEG)4- Leu Thr F2f Glu His Tyr Hexa Ala Gln Cba Thr Ser Lys -NH2 [(SEQ ID NO: 11) | 10a]” here?
**A.** 26 nM

**Q.** With “Bio-(PEG)4- Leu Thr F2f Glu His Tyr Trp Ala Gln Cba Thr Ser Lys -NH2 [(SEQ ID NO: 12) | 11a]” as the substance, how does the Kd (MDMX) read?
**A.** 33 nM

**Q.** With “LT(F2f)(R8)EY(Hexa)AQ(Cba)(S5)SAA [peptide 10b-M]” as the substance, how does the “binding to MDM2 (in words)” value (SUMO-25-109 MDM2 [1]; in solution competition) read?
**A.** low nanomolar affinity

**Q.** What about the cell viability (MCF-7 cells) of the same substance?
**A.** lowered viability for MCF-7 cells

**Q.** And the “cell killing / viability” value (SJSA-1 cells [3])?
**A.** cell-killing properties; also recorded: killed SJSA-1 cells

**Q.** And the cell viability (K-562 cells)?
**A.** did not significantly lower K-562 viability

**Q.** What about the “upregulation of MDM2 and p21” value (SJSA-1 cells [4]) of the same substance?
**A.** upregulated MDM2 and P21 markers

**Q.** “Ac-LTYEHYWAQLTSK-NH2 [SEQ ID NO: 67 | 8b]” was tested. Which Kd (MDM2 [6]) did it give?
**A.** 2700 nM

**Q.** With LT(F2f)EHYWAQ(Cba)TSK [peptide 11b] as the substance, how does the “binding to MDM2 (in words)” value (SUMO-25-109 MDM2 [1]; in solution competition) read?
**A.** low nanomolar affinity
